The target in experiment [1] is T1, HCV NS5B polymerase (NS5BΔCT21, from HCV-Con 1 isolate, genotype 1b) (Hepatitis C virus genotype 1b, UniProt Q9WMX2).
T1 construct: A soluble C-terminal 21-amino acid truncated NS5B enzyme form; polyhistidine (C); made in house; host or cells: Escherichia coli
In words: HCV NS5B Polymerase Inhibition Assay. In kind it is biochemical. The text has this: A chemically synthesized 75-mer version, designated DCoH75, whose sequence matches the 3′-end of D-RNA, and DCoH75ddC, where the 3′-terminal cytidine of DCoH75 is replaced by dideoxycytidine, were used for assaying the NS5B enzyme activity as described in Ferrari et al., 12th International Symposium on HCV and Related Viruses, P-306 (2005). The sequence of the template RNA was: 5′-UGUGCCGGUCUUUCUGAACGGGAUAUAAACCUGGCCAGCUUCAUCGAACAAGUUGCCGUGUCUAUGACAUAGAUC-3′. A soluble C-terminal 21-amino acid truncated NS5B enzyme form (NS5BΔCT21, from HCV-Con 1 isolate, genotype 1b, Genbank accession number AJ238799) was produced and purified from Escherichia coli as C-terminal polyhistidine-tagged fusion protein as described in Ferrari et al., J. Virol. 73:1649-1654 (1999). A typical assay contained 20 mM Hepes pH 7.3, 10 mM MgCl2, 60 mM NaCl, 100 μg/ml BSA, 20 units/ml RNasin, 7.5 mM DTT, 0.1 μM ATP/GTP/UTP, 0.026 μM CTP, 0.25 mM GAU, 0.03 μM RNA template, 20 μCi/ml [^33P]-CTP, 2% DMSO, and 30 or 150 nM NS5B enzyme. Reactions were incubated at 22° C. for 2 hours, then stopped by adding 150 mM EDTA, washed in DE81 filter plate in 0.5M di-basic sodium phosphate buffer, pH 7.0, and counted using Packard TopCount after the addition of scintillation cocktail. Polynucleotide synthesis was monitored by the incorporation of radiolabeled CTP. The effect of the Compounds of Formula (I) on the polymerase activity was evaluated by adding various concentrations of a Compound of Formula (I), typically in 10 serial 2-fold dilutions, to the assay mixture. The starting concentrations ranged from 200 μM to 1 μM. An IC50 value for the inhibitor, defined as the compound concentration that provides 50% inhibition of polymerase activity, was determined by fitting the cpm data to the Hill equation Y=100/(1+10^((LogIC50-X)*HillSlope)), where X is the logarithm of compound concentration, and Y is the % inhibition. Ferrari et al., 12th International Symposium on HCV and Related Viruses, P-306 (2005) described in detail this assay procedure. It should be noted that such an assay as described is exemplary and not intended to limit the scope of the invention. The skilled practitioner can appreciate that modifications including but not limited to RNA template, primer, nucleotides, NS5B polymerase form, buffer composition, can be made to develop similar assays that yield the same result for the efficacy of the compounds and compositions described in the invention.
NS5B polymerase inhibition data for selected Compounds of Formula (I) is provided below in Table 2, wherein the compound numbers correspond to the compound numbering set forth in the above specification.

Experiment [2] has as its system HCV replicon cells (replicon RNA level). In words: Cell-Based HCV Replicon Assay. The conditions noted are these: Hepatitis C virus, 72 h; replicon RNA level by real time PCR (Taqman), cells harvested on day 3; read-out: EC50. The procedure: To measure cell-based anti-HCV activity of the a Compound of Formula (I), replicon cells were seeded at 5000 cells/well in 96-well collagen I-coated Nunc plates in the presence of the Compound of Formula (I). Various concentrations of a Compound of Formula (I), typically in 10 serial 2-fold dilutions, were added to the assay mixture, with the starting concentration ranging from 250 μM to 1 μM. The final concentration of DMSO was 0.5%, fetal bovine serum was 5%, in the assay media. Cells were harvested on day 3 by the addition of 1× cell lysis buffer (Ambion cat #8721). The replicon RNA level was measured using real time PCR (Taqman assay). The amplicon was located in 5B. The PCR primers were: 5B.2F, ATGGACAGGCGCCCTGA; 5B.2R, […]; the probe sequence was FAM-labeled CACGCCATGCGCTGCGG. GAPDH RNA was used as endogenous control and was amplified in the same reaction as NS5B (multiplex PCR) using primers and VIC-labeled probe recommended by the manufacturer (PE Applied Biosystem). The real-time RT-PCR reactions were run on ABI PRISM 7900HT Sequence Detection System using the following program: 48° C. for 30 min, 95° C. for 10 min, 40 cycles of 95° C. for 15 sec, 60° C. for 1 min. The ΔCT values (CT5B-CTGAPDH) were plotted against the concentration of test compound and fitted to the sigmoid dose-response model using XLfit4 (MDL). EC50 was defined as the concentration of inhibitor necessary to achieve ΔCT=1 over the projected baseline; EC90 the concentration necessary to achieve ΔCT=3.2 over the baseline. Alternatively, to quantitate the absolute amount of replicon RNA, a standard curve was established by including serially diluted T7 transcripts of replicon RNA in the Taqman assay. All Taqman reagents were from PE Applied Biosystems. Such an assay procedure was described in detail in e.g. Malcolm et al., Antimicrobial Agents and Chemotherapy 50: 1013-1020 (2006).
HCV Replicon assay data for selected Compounds of Formula (I) is provided below in Table 1, wherein the compound numbers correspond to the compound numbering set forth in the above specification.

[3] abbreviates: NS5B polymerase inhibition, [33P]-CTP incorporation, 22° C. for 2 hours, read-out: IC50.

Where two headings read alike, the source gives them in different places. A value given as a limit tells only on which side of the number the result lay.

Take `O=C(NS(=O)(=O)C1CC1)c1c(-c2ccc[nH]c2=O)c2c3occc3c(F)cc2n1Cc1ccccc1F` [Compound 162]: the IC50 (in general, the concentration at which inhibition is half-maximal) in experiment [1] (setting [3]) is less than 0.025 µM. Besides, the EC50 (in general, the concentration giving half of the maximal effect) in experiment [2] is less than 0.5 µM.
For `O=C(O)c1ccc(F)c(Cn2c(C(=O)O)c(-c3ccc[nH]c3=O)c3c4occc4c(F)cc32)c1` [Compound 108], in that order: less than 0.025 µM and 0.5 to 1.5 µM.
In the same order, the values of `NCc1ccc(Cn2c(C(=O)O)c(-c3ccc[nH]c3=O)c3c4occc4c(F)cc32)c(F)c1` [Compound 95] are less than 0.025 µM and less than 0.5 µM.
Consider `Nc1ccccc1S(=O)(=O)NC(=O)c1c(-c2ccc[nH]c2=O)c2c3occc3c(F)cc2n1Cc1ccccc1F` [Compound 202], for which, in experiment [1] (setting [3]), the concentration for half-maximal inhibition (IC50) is less than 0.025 µM. For the same compound, the EC50 in experiment [2] is less than 0.5 µM.
For the compound `NC(=O)c1ccc(Cn2c(C(=O)O)c(-c3ccc[nH]c3=O)c3c4occc4c(F)cc32)cc1` [Compound 93], the IC50 in experiment [1] (setting [3]) is less than 0.025 µM. Also, the EC50 in experiment [2] was less than 0.5 µM.
For `NC(=O)c1cnc(F)c(Cn2c(C(=O)NS(=O)(=O)C3CC3)c(-c3ccc[nH]c3=O)c3c4occc4c(F)cc32)c1` [Compound 197], the half-maximal inhibitory concentration (IC50) in experiment [1] (setting [3]) was less than 0.025 µM. Also, the EC50 in experiment [2] is less than 0.5 µM.
Turning to `O=C(NS(=O)(=O)C1CC1)c1c(-c2ccc[nH]c2=O)c2c3occc3c(F)cc2n1Cc1cc(=O)[nH]cc1F` [Compound 174], the IC50 in experiment [1] (setting [3]) is less than 0.025 µM. Besides, in experiment [2], the EC50 is less than 0.5 µM.
For the compound `O=C(O)c1c(-c2ccc[nH]c2=O)c2c3occc3ccc2n1Cc1cc2ccccc2nc1Cl` [Compound 116], in experiment [1] (setting [3]), the IC50 is less than 0.025 µM. For the same compound, in experiment [2], the EC50 is less than 0.5 µM.
As for `Cc1cccc(Cn2c(C(=O)NS(C)(=O)=O)c(-c3ccc[nH]c3=O)c3c4occc4c(F)cc32)c1F` [Compound 146], the IC50 in experiment [1] (setting [3]) was less than 0.025 µM. The EC50 in experiment [2] is less than 0.5 µM.
For `CS(=O)(=O)NC(=O)c1c(-c2ccc[nH]c2=O)c2c3occc3c(F)cc2n1Cc1cc2nc[nH]c2cc1Cl` [Compound 182], in that order: less than 0.025 µM and less than 0.5 µM.
In the same order, the values of `CS(=O)(=O)NC(=O)c1c(-c2ccc[nH]c2=O)c2c3occc3c(F)cc2n1Cc1cc2cccc(Br)c2o1` [Compound 218] are less than 0.025 µM and greater than 1.5 µM.
`CCOC(=O)c1c(-c2ccccc2F)c2c3c(C)c(C)[nH]c3ccc2n1Cc1ccccc1` [Compound 51] displayed an IC50 in experiment [1] greater than 0.1 µM. Also, the EC50 in experiment [2] was greater than 1.5 µM.
For the compound `CCc1coc2c1ccc1c2c(-c2ccc[nH]c2=O)c(C(=O)O)n1Cc1ccccc1F` [Compound 43], the IC50 in experiment [1] (setting [3]) is greater than 0.1 µM. The EC50 in experiment [2] is greater than 1.5 µM.
As for `O=C(O)c1c(-c2ccc[nH]c2=O)c2c3occc3c(F)cc2n1Cc1cc2[nH]c(=O)[nH]c2cc1Cl` [Compound 131], the IC50 in experiment [1] (setting [3]) was less than 0.025 µM. The 50% effective concentration (EC50) in experiment [2] was less than 0.5 µM.
In the same order, the values of `O=C(O)c1c(-c2ccc[nH]c2=O)c2c3ccoc3ccc2n1Cc1cc(F)ccc1F` [Compound 40] are 0.025 to 0.1 µM and greater than 1.5 µM.
For `CN(C)S(=O)(=O)NC(=O)c1c(-c2ccc[nH]c2=O)c2c3occc3c(F)cc2n1Cc1cc2ccccc2nc1Cl` [Compound 215], the IC50 in experiment [1] (setting [3]) was less than 0.025 µM. In addition, the half-maximal effective concentration (EC50) in experiment [2] was less than 0.5 µM.
As to `Nc1n[nH]c2cc(F)c(Cn3c(C(=O)O)c(-c4ccc[nH]c4=O)c4c5occc5c(F)cc43)cc12` [Compound 80], the IC50 in experiment [1] is less than 0.025 µM. The EC50 in experiment [2] is less than 0.5 µM.
Take `Cc1cccc(Cn2c(C(=O)NS(=O)(=O)C(C)C)c(-c3ccc[nH]c3=O)c3c4occc4ccc32)c1F` [Compound 158]: the IC50 in experiment [1] (setting [3]) was less than 0.025 µM. Further, the EC50 in experiment [2] was 0.5 to 1.5 µM.
With `O=C(O)c1c(-c2ccc[nH]c2=O)c2c3c(ccc2n1Cc1cc(F)ccc1F)OC(F)(F)O3` [Compound 37], the IC50 in experiment [1] (setting [3]) was less than 0.025 µM. In addition, in experiment [2], the EC50 is greater than 1.5 µM.
In the same order, the values of `O=C(NS(=O)(=O)C1CC1)c1c(-c2ccc[nH]c2=O)c2c3occc3c(F)cc2n1Cc1cc(C(O)CO)ccc1F` (stereo not drawn) [Compound 207] are less than 0.025 µM and less than 0.5 µM.
For `O=C(O)c1c(-c2ccc[nH]c2=O)c2c3scnc3ccc2n1Cc1ccc(F)cc1F` [Compound 16], in that order: greater than 0.1 µM and greater than 1.5 µM.
For `Cc1ccc(Cn2c(C(=O)NS(C)(=O)=O)c(-c3ccc[nH]c3=O)c3c4occc4ccc32)c(C)c1` [Compound 60], in that order: less than 0.025 µM and less than 0.5 µM.
Regarding `CC(C)(C)C(=O)OCn1cccc(-c2c(C(=O)O)n(Cc3cc4ccccc4nc3Cl)c3cc(F)c4ccoc4c23)c1=O` [Compound 219], the IC50 in experiment [1] (setting [3]) is greater than 0.1 µM. Moreover, the EC50 in experiment [2] was less than 0.5 µM.
As to `CCOC(=O)c1c(-c2ccc[nH]c2=O)c2c3occc3c(F)cc2n1Cc1cc(C(N)=O)ccc1F` [Compound 130], the IC50 in experiment [1] (setting [3]) was in the range of 0.025 to 0.1 µM. Moreover, in experiment [2], the EC50 was less than 0.5 µM.
For `Cc1c[nH]c(=O)cc1Cn1c(C(=O)O)c(-c2ccc[nH]c2=O)c2c3occc3c(F)cc21` [Compound 83], in that order: less than 0.025 µM and less than 0.5 µM.
For `Cc1cccc(Cn2c(C(=O)O)c(-c3ccc[nH]c3=O)c3c4occ(C)c4ccc32)c1F` [Compound 48], in that order: greater than 0.1 µM and greater than 1.5 µM.
For `Cc1ccccc1Cn1c(C(=O)NS(=O)(=O)C2CC2)c(-c2ccc[nH]c2=O)c2c3occc3ccc21` [Compound 138], in that order: less than 0.025 µM and less than 0.5 µM.
On to `CC(C)S(=O)(=O)NC(=O)c1c(-c2ccc[nH]c2=O)c2c3occc3c(F)cc2n1Cc1csc(C(N)=O)c1` [Compound 186], for which the IC50 in experiment [1] (setting [3]) is less than 0.025 µM. Further, the EC50 in experiment [2] was less than 0.5 µM.
In the same order, the values of `O=C(NS(=O)(=O)C1CC1)c1c(-c2ccc[nH]c2=O)c2c3occc3ccc2n1Cc1ccccc1F` [Compound 65] are less than 0.025 µM and less than 0.5 µM.
Consider `CS(=O)(=O)NC(=O)c1c(-c2ccc[nH]c2=O)c2c3sccc3ccc2n1Cc1cc(F)ccc1F` [Compound 52], for which the IC50 in experiment [1] (setting [3]) is less than 0.025 µM. Further, the EC50 in experiment [2] was greater than 1.5 µM.
Regarding `CS(=O)(=O)NC(=O)c1c(-c2ccc[nH]c2=O)c2c3occc3ccc2n1Cc1cc(C(N)=O)ccc1F` [Compound 161], the half-maximal inhibitory concentration (IC50) in experiment [1] (setting [3]) is less than 0.025 µM. For the same compound, in experiment [2], the EC50 was less than 0.5 µM.
Consider `CS(=O)(=O)NC(=O)c1c(-c2ccc[nH]c2=O)c2c3occc3ccc2n1Cc1cc2ccccc2nc1Cl` [Compound 180], for which the IC50 in experiment [1] (setting [3]) is less than 0.025 µM. For the same compound, the EC50 in experiment [2] is less than 0.5 µM.
As for `C[C@@H]1COc2c1ccc1c2c(-c2ccc[nH]c2=O)c(C(=O)NS(=O)(=O)C2CC2)n1Cc1cc(F)ccc1F` [Compound 173], in experiment [1] (setting [3]), the IC50 is less than 0.025 µM. Besides, in experiment [2], the EC50 is less than 0.5 µM.

For the origin of these results see patent US8557848B2, “4,5-ring annulated indole derivatives for treating or preventing of HCV and related viral infections” (Merck Sharp & Dohme Corp., priority 2006, dated 2013).
